Source: patent US5208364A, “Antibiotic 5-lipoxygenase inhibitors” (Bristol-Myers Squibb Co., priority 1992, dated 1993)

Columns and labels:
[1] = Solubility (physico-chemical properties); type: physicochemical
rat 5-LPO = target: T1, rat 5-LPO (Rattus norvegicus, UniProt P12527); test: 5-LPO inhibitory activity (5-HETE produced in cell-free extract of rat basophilic leukemia RBL-1 cells, HPLC); type: biochemical; conditions: arachidonic acid substrate, 37° C., 5 minutes
T1 construct: produced in a cell-free extract of rat basophilic leukemia cells; endogenous in cells; host or cells: RBL-1 rat basophilic leukemia cells (ATCC CRL 1378), cell-free extract
T1 sequence (P12527 1-673): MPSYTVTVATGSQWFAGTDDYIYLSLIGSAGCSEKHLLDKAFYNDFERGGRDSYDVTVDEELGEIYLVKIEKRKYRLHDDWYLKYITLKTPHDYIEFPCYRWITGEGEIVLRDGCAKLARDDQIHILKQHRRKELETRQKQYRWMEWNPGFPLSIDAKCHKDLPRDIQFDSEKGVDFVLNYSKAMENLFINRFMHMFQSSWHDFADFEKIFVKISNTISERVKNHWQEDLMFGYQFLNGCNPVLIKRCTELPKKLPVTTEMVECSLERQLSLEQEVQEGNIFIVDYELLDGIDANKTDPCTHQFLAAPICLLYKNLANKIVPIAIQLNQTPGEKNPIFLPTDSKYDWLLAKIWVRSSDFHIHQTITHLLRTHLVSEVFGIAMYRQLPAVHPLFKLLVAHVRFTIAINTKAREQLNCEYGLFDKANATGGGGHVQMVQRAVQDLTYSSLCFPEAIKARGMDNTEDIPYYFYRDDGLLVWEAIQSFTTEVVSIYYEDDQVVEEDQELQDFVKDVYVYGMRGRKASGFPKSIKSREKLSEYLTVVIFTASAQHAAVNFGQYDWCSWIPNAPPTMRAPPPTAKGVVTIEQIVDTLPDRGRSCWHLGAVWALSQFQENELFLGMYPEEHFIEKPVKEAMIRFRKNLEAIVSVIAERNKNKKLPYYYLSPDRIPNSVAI
Protocol: The assay method employed in this manuscript is a slight modification of that published by Hook, Yacobuci, O'Connor, Lee, Kerns, Krishnan, Matson and Hesler in "Identification of the inhibitory activity of carbazomycins B and C against 5-lipoxygenase: a new activity for these compounds", J. Antibiot. (1990) 43, 1347. Rat basophilic leukemia cells […]. They were harvested by centrifugation and washed twice with […] containing I mM EDTA. The cells were resuspended in the same buffer and sonicated. The suspension was centrifuged at 13,000×g to remove cell debris and the supernatant stored at -80° C.
Enzyme assays were conducted by diluting the cell-free extract to the desired specific enzyme activity with phosphate buffer saline (PBS) containing 28.5 mM phosphate, 1 mM ethylenediamine tetraacetic acid (EDTA), 0.9 mM adenosine triphosphate (ATP) and 0.9 mM glutathione. The cell-free extract solution (110 μ1) was preincubated at 37° C. for 2.5 minutes, followed by the addition of the test sample in 20 μl of DMSO-PBS (1:9, v/v). The reaction was started by the addition of 5 μl of substrate (2 mM arachidonic acid plus 25 mM CaC12 in ethanol-water, 3:1). After incubation for 5 minutes, the reaction was terminated by the addition of 135 μl of ethanol and the solution centrifuged to remove precipitated protein. The 5-hydroxyeicosatetraenoic acid (5-HETE) in the supernatant was analyzed by HPLC as described below.
The inhibitory effect of a fermentation broth extract or a purified preparation was determined by measuring the amount of 5-hydroxyeicosatetraenoic acid (5-HETE) produced in a cell-free extract of rat basophilic leukemia cells (RBL-I cells, ATCC CRL 1378) in the presence of a test sample, arachidonic acid, adenosine triphosphate, CaC12 and glutathione. […] The concentration of 5-HETE was spectrophotometrically measured at 230 nm with a Gilson 115 UV detector and a Hewlett Packard 3396 A integrator.

| solubility in methanol, ethanol, ethyl acetate, chloroform and dimethyl sulfoxide [1] | solubility in n-hexane [1] | solubility in water [1] | IC50 (rat 5-LPO) [µM] | SMILES |
| --- | --- | --- | --- | --- |
| soluble | slightly soluble | insoluble | 6.3 | CC(C)CCCCCCCCCOC(=O)c1cc(O)ccc1N [Compound IC, Isolauryl 5-hydroxyanthranilate] |
| soluble | slightly soluble | insoluble | 3.4 | CC(C)CCCCCCCOC(=O)c1cc(O)ccc1N [IA, Isodecyl 5-hydroxyanthranilate] |
| soluble | slightly soluble | insoluble | 4.9 | CC(C)CCCCCCCCOC(=O)c1cc(O)ccc1N [IB, Isoundecyl 5-hydroxyanthranilate] |
